Assay results published in patent publication US20220388957A1, “COMPOUNDS AND COMPOSITIONS FOR TREATING CONDITIONS ASSOCIATED WITH STING ACTIVITY” (IFM Due, Inc., priority 2019, published 2022).

What follows are molecules tested against T1, Human STING (Homo sapiens, UniProt Q86WV6, G230A/H232R/R293Q/R71H) (assay: STING reporter assay (luciferase) in THP1-Dual KO-IFNAR2 cells stimulated with 2′3′cGAMP). Conditions: 2′3′cGAMP 15 μM, 24 h, class symbols.
T1 construct: host or cells: THP1-Dual KO-IFNAR2 cells (human monocytic reporter line)
Format: cell-based
Description: STING pathway activation by the compounds described herein was measured using THP1-Dual™ cells (KO-IFNAR2).
THP1-Dual™ KO-IFNAR2 Cells (obtained from invivogen) were maintained in RPMI, 10% FCS, 5 ml P/S, 2 mM L-glut, 10 mM Hepes, and 1 mM sodium pyruvate. Compounds were spotted in empty 384 well tissue culture plates (Greiner 781182) by Echo for a final concentration of 0.0017-100 μM. Cells were plated into the TC plates at […], 2×10E6 cells/mL. For activation with STING ligand, 2′3′cGAMP (MW 718.38, obtained from Invivogen), was prepared in Optimem media.
The following solutions were prepared for each 1×384 plate: • o Solution A: 2 mL Optimem with one of the following stimuli: • 60 uL of 10 mM 2′3′cGAMP->150 μM stock • Solution B: 2 mL Optimem with 60 μL Lipofectamine 2000->Incubate 5 min at RT
2 mL of solution A and 2 ml Solution B was mixed and incubated for 20 min at room temperature (RT). 20 μL of transfection solution (A+B) was added on top of the plated cells, with a final 2′3′cGAMP concentration of 15 μM. The plates were then centrifuged immediately at 340 g for 1 minute, after which they were incubated at 37° C., 5% CO2, >98% humidity for 24 h. Luciferase reporter activity was then measured. EC50 values were calculated by using standard methods known in the art.
Luciferase reporter assay: 10 μL of supernatant from the assay was transferred to white 384-plate with flat bottom and squared wells. One pouch of QUANTI-Luc™ Plus was dissolved in 25 mL of water. 100 μL of QLC Stabilizer per 25 mL of QUANTI-Luc™ Plus solution was added. 50 μL of QUANTI-Luc™ Plus/QLC solution per well was then added. Luminescence was measured on a Platereader (e.g., Spectramax I3X (Molecular Devices GF3637001)).
Luciferase reporter activity was then measured. EC50 values were calculated by using standard methods known in the art.

T1 sequence (Q86WV6 whole entry R71H/G230A/H232R/R293Q): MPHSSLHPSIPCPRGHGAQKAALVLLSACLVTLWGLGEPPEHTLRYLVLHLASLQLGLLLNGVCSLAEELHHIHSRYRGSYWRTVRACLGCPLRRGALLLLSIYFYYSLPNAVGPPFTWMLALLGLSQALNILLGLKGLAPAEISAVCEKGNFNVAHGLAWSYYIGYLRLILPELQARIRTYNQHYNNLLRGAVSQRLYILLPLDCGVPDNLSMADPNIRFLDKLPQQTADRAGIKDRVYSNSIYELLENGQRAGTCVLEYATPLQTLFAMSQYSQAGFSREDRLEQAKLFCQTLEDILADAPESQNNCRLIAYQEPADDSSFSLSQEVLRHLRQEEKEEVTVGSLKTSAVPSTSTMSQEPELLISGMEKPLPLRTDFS

Compound | EC50 [µM]
O=S(=O)(Nc1c[nH]nc1-c1ccccc1)c1ccc(C(F)(F)F)cc1 [Compound 106] | 5 to 100
CCCCCCCCS(=O)(=O)Nc1c[nH]c2cc(F)c(F)cc12 [Compound 128, N-(5,6-difluoro-1H-indol-3-yl)octane-1-sulfonamide] | 1 to 5
O=S(=O)(Cc1cccc(C(F)(F)F)c1)Nc1c[nH]c2cc(F)c(F)cc12 [Compound 131, N-(5,6-difluoro-1H-indol-3-yl)-1-(3-(trifluoromethyl)phenyl) methanesulfonamide] | 5 to 100

Now from value to molecule:

EC50 [µM] | Compound
5 to 100 | O=S(=O)(Nc1c[nH]c2cc(F)c(F)cc12)c1ccc2c(c1)CCC2 [Compound 135, N-(5,6-difluoro-1H-indol-3-yl)-2,3-dihydro-1H-indene-5-sulfonamide]
5 to 100 | O=S(=O)(Nc1c[nH]c2cc(F)c(F)cc12)c1ccc2c(c1)CCCC2 [Compound 139, N-(5,6-difluoro-1H-indol-3-yl)-5,6,7,8-tetrahydro-naphthalene-2-sulfonamide]
5 to 100 | CC(C)c1ccc(S(=O)(=O)Nc2c[nH]c3cc(F)c(F)cc23)cc1 [Compound 141, N-(5,6-difluoro-1H-indol-3-yl)-4-isopropylbenzene-sulfonamide]

Same assay, conditions: 2′3′cGAMP 15 μM, 24 h, numeric bound

EC50 [µM] | Compound
> 100 | CC1CNCCC1NS(=O)(=O)c1c[nH]c2nccc(Cl)c12 (stereo not shown) [Compound 112]
